Reference: patent US20220096614A1, “PEPTIDE-INDUCED NK CELL ACTIVATION” (University of Southampton, priority 2019, published 2022)

System: KIR2DS2
Experiment: KIR2DS2 tetramer staining of peptide-loaded 721.174 cells (flow cytometry)
Type: binding
Conditions: 721.174 cells loaded with peptide; KIR2DS2 tetramer conjugated to phycoerythrin; no peptide 10503
Source text: 721.174 cells were loaded with peptide and then stained using a tetramer of KIR2DS2 conjugated to phycoerythrin. Shown is a flow cytometry histogram plot of the staining of the 721.174 cells in the presence or absence of peptide. Mean fluorescence intensitites are indicated: 14811 for NAPLVHATL versus 10503 for no peptide.

KIR2DS2, sequence (P43631 22-245 limits assumed): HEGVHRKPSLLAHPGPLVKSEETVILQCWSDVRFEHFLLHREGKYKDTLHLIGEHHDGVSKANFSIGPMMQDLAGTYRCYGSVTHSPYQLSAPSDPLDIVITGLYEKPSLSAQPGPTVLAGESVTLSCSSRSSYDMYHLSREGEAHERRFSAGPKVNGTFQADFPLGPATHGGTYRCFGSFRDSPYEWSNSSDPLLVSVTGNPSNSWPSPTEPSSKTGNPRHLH
KIR2DS2, sequence (P10321 25-366, further chain): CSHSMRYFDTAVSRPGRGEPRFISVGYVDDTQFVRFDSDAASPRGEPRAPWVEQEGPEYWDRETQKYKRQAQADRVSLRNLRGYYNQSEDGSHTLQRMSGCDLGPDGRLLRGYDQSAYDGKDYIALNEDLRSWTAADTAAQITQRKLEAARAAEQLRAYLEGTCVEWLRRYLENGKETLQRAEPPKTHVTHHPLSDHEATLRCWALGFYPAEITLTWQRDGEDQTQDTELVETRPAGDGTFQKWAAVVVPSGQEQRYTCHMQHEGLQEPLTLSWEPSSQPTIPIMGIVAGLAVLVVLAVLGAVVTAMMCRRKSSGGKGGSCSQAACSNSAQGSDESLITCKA
KIR2DS2, sequence (P61769 21-119 partner): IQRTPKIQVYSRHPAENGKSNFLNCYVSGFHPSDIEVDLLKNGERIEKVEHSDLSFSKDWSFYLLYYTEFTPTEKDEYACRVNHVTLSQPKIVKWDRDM

## NAPLVHATL [peptide derived from Exportin-1 (XPO1)]
  Mean fluorescence intensity of KIR2DS2 tetramer staining: 14811
